This test deals with Swiss mice, Sarcoma 180 sc, mean tumor weight T/C. The experiment in a line: NCI In Vivo Anticancer Drug Screen. Data for tumor model Sarcoma 180 (subcutaneous) in Swiss mice. The following applies: endpoint: mean tumor weight, higher = larger tumour. In a few lines:
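Antitumor activity is assessed in mice with transplantable tumors. Treated (T) and vehicle control (C) groups are compared on survival or tumor size.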

[1] abbreviates: dose: 55.0 mg/kg/injection, schedule: Q01DX007 (ip), vehicle: carboxymethylcellulose (CMC).
[2] abbreviates: dose: 125.0 mg/kg/injection, schedule: Q01DX007 (ip), vehicle: carboxymethylcellulose (CMC).
The mark [3] stands for this setting: dose: 125.0 mg/kg/injection, schedule: Q01DX007 (ip), vehicle: other.

The structures appear in SMILES notation. “And” between values parts separate entries of the source, which are not always exact repeats. Equal values may be shown once. Numbered stars: 1 amine (or outer) side, 2 acyl side, 3 side chain; on linkers, the order of the positions; unused ones are H or OH. Bridge positions count the residues as written; N and C are the ends. Square brackets hold non-standard residues; d marks the D form. Peptide text beside a SMILES is read from it. I, II: the chains in the order shown. Actinocin(9to1) = Cc1c2oc3c(C)ccc(C(=O)[*:1])c3nc-2c(C(=O)[*:2])c(N)c1=O; aThr = C[C@H](O)[C@H](N)C(=O)O; NMeV = CN[C@H](C(=O)O)C(C)C; Sar = CNCC(=O)O

In general, T/C refers to the ratio of treated to control.

Consider `Cc1ncc(CO)c(C)c1O`, for which the T/C was 102 % of control (dose: 25.25 mg/kg/injection, schedule: Q01DX007 (ip), vehicle: carboxymethylcellulose (CMC)); 77 % of control (dose: 27.5 mg/kg/injection, schedule: Q01DX007 (ip), vehicle: carboxymethylcellulose (CMC)); 102 % of control (dose: 50.5 mg/kg/injection, schedule: Q01DX007 (ip), vehicle: carboxymethylcellulose (CMC)); 54 % of control under setting [1]; 84 % of control (dose: 101.0 mg/kg/injection, schedule: Q01DX007 (ip), vehicle: carboxymethylcellulose (CMC)); 53 % of control (dose: 110.0 mg/kg/injection, schedule: Q01DX007 (ip), vehicle: carboxymethylcellulose (CMC)). In addition, the T/C (dose: 202.0 mg/kg/injection, schedule: Q01DX007 (ip), vehicle: carboxymethylcellulose (CMC)) was 71 % of control.
In the case of `COc1ccc2c(=O)oc3c(OC)cc(CCN(C)C)c4c(=O)oc1c2c34`, the T/C runs as follows: (dose: 0.8 mg/kg/injection, schedule: Q01DX007 (ip), vehicle: water) 113 % of control; (dose: 1.6 mg/kg/injection, schedule: Q01DX007 (ip), vehicle: water) 77 % of control; (dose: 3.2 mg/kg/injection, schedule: Q01DX007 (ip), vehicle: water) 108 % of control; (dose: 6.3 mg/kg/injection, schedule: Q01DX007 (ip), vehicle: water) 86 % of control.
For `O=CNc1c(Br)cc2c(c1Br)Cc1cc([N+](=O)[O-])ccc1-2`, the T/C (dose: 7.0 mg/kg/injection, schedule: Q01DX007 (ip), vehicle: carboxymethylcellulose (CMC)) was 52 % of control; the T/C (dose: 11.0 mg/kg/injection, schedule: Q01DX007 (ip), vehicle: carboxymethylcellulose (CMC)) is 45 % of control; the T/C (dose: 17.0 mg/kg/injection, schedule: Q01DX007 (ip), vehicle: carboxymethylcellulose (CMC)) is 40 % of control; the T/C (dose: 26.0 mg/kg/injection, schedule: Q01DX007 (ip), vehicle: carboxymethylcellulose (CMC)) is 22 % of control.
As to `COC1=C(N(C)C)C(=O)c2ncccc2C1=O`, the T/C is 86 % of control (dose: 12.5 mg/kg/injection, schedule: Q01DX007 (ip), vehicle: water); 72 % of control (dose: 25.0 mg/kg/injection, schedule: Q01DX007 (ip), vehicle: water); 92 % of control (dose: 50.0 mg/kg/injection, schedule: Q01DX007 (ip), vehicle: water).
For `c1ccc2nc3c(nc2c1)[nH]c1ccccc13`, the T/C (dose: 62.5 mg/kg/injection, schedule: Q01DX007 (ip), vehicle: carboxymethylcellulose (CMC)) was 76 % of control; the T/C under setting [2] is 67 % of control; the T/C (dose: 250.0 mg/kg/injection, schedule: Q01DX007 (ip), vehicle: carboxymethylcellulose (CMC)) is 114 % of control.
As to `CC(=O)c1cccc(NC2C(N)C(NC(=O)N(C)C)(C(C)O)C(C)(O)C2(O)COC(=O)c2c(C)cccc2O)c1` (centres undefined), the T/C is, setting by setting: (dose: 0.5 mg/kg/injection, schedule: Q01DX007 (ip), vehicle: other) 88 % of control; (dose: 1.0 mg/kg/injection, schedule: Q01DX007 (ip), vehicle: other) 81 % of control; (dose: 2.0 mg/kg/injection, schedule: Q01DX007 (ip), vehicle: other) 110 % of control; (dose: 2.0 mg/kg/injection, schedule: Q01DX007 (ip), vehicle: saline) 66 % of control.
With `CC(=O)[C@H]1CC[C@H]2[C@@H]3C[C@H](C)C4=CC(=O)CC[C@]4(C)[C@H]3C(=O)C[C@]12C`, the T/C is, setting by setting: (dose: 25.0 mg/kg/injection, schedule: Q#A X014 (oral), vehicle: steriod suspending solution) 72 % of control; (dose: 62.5 mg/kg/injection, schedule: Q#A X014 (oral), vehicle: steriod suspending solution) 55 % of control; (dose: 110.0 mg/kg/injection, schedule: Q#A X014 (oral), vehicle: steriod suspending solution) 86 % of control.
Take `CCCCn1cnc2c(SSc3ncnc4c3ncn4CCCC)ncnc21`: the T/C is 82 % of control (dose: 53.0 mg/kg/injection, schedule: Q01DX007 (ip), vehicle: carboxymethylcellulose (CMC)); 62 % of control (dose: 53.0 mg/kg/injection, schedule: Q01DX007 (ip), vehicle: other); 65 % of control (dose: 83.0 mg/kg/injection, schedule: Q01DX007 (ip), vehicle: other); 71 % of control (dose: 83.0 mg/kg/injection, schedule: Q01DX007 (ip), vehicle: saline); 50 % of control under setting [3]; 37 % of control (dose: 125.0 mg/kg/injection, schedule: Q01DX007 (ip), vehicle: saline). Also, the T/C (dose: 187.0 mg/kg/injection, schedule: Q01DX007 (ip), vehicle: other) was 30 % of control.
Turning to `CCCCN(C)/N=N/c1nc[nH]c1C(N)=O`, the T/C by setting is: (dose: 31.0 mg/kg/injection, schedule: Q01DX007 (ip), vehicle: carboxymethylcellulose (CMC)) 44 % of control; (dose: 62.0 mg/kg/injection, schedule: Q01DX007 (ip), vehicle: carboxymethylcellulose (CMC)) 31 % of control; under setting [2], 14 % of control.
With `Cc1c2oc3c(C)ccc(C(=O)N[C@@H]4C(=O)N[C@H](C(C)C)C(=O)N5CCC[C@H]5C(=O)N(C)CC(=O)N(C)[C@@H](C(C)C)C(=O)O[C@H]4C)c3nc-2c(C(=O)N[C@@H]2C(=O)N[C@H](C(C)C)C(=O)N3CCC[C@H]3C(=O)N(C)CC(=O)N(C)[C@@H](C(C)C)C(=O)O[C@H]2C)c(N)c1=O` (I: [aThr][dV]P[Sar][NMeV] / II: [aThr][dV]P[Sar][NMeV]; ester I:1-I:C, II:1-II:C; linker I:N-II:N via Actinocin(9to1)), the T/C (dose: 4.0 mg/kg/injection, schedule: Q#A X014 (ip), vehicle: carboxymethylcellulose (CMC)) was 105 % of control; the T/C (dose: 7.5 mg/kg/injection, schedule: Q#A X014 (ip), vehicle: carboxymethylcellulose (CMC)) was 71 % of control; the T/C (dose: 12.0 mg/kg/injection, schedule: Q#A X014 (ip), vehicle: carboxymethylcellulose (CMC)) was 70 % of control; the T/C (dose: 15.0 mg/kg/injection, schedule: Q#A X014 (ip), vehicle: carboxymethylcellulose (CMC)) was 47 % of control and 71 % of control; the T/C (dose: 20.0 mg/kg/injection, schedule: Q#A X014 (ip), vehicle: carboxymethylcellulose (CMC)) is 51 % of control; the T/C (dose: 30.0 mg/kg/injection, schedule: Q#A X014 (ip), vehicle: carboxymethylcellulose (CMC)) is 13 % of control and 24 % of control.
For the compound `CCCCNP(=O)(N1CC1C)N1CC1C` (centres undefined), the T/C runs as follows: (dose: 7.0 mg/kg/injection, schedule: Q#A X014 (ip), vehicle: saline) 64 % of control; (dose: 10.5 mg/kg/injection, schedule: Q#A X014 (ip), vehicle: saline) 62 % of control; (dose: 15.5 mg/kg/injection, schedule: Q#A X014 (ip), vehicle: saline) 50 % of control; (dose: 23.5 mg/kg/injection, schedule: Q#A X014 (ip), vehicle: saline) 39 % of control.
Turning to `NC(=O)c1ccccc1Nc1ccc([N+](=O)[O-])cc1[N+](=O)[O-]`, the T/C (dose: 37.5 mg/kg/injection, schedule: Q01DX007 (ip), vehicle: carboxymethylcellulose (CMC)) was 92 % of control and the T/C (dose: 75.0 mg/kg/injection, schedule: Q01DX007 (ip), vehicle: carboxymethylcellulose (CMC)) is 67 % of control.
On to `c1ccc2c(c1)-c1cccc3c1c-2cc1ccccc13`, for which the T/C was 53 % of control (dose: 25.0 mg/kg/injection, schedule: Q01DX007 (ip), vehicle: other); 36 % of control and 47 % of control (dose: 36.0 mg/kg/injection, schedule: Q01DX007 (ip), vehicle: other); 35 % of control under setting [1]; 57 % of control (dose: 55.0 mg/kg/injection, schedule: Q01DX007 (ip), vehicle: other); 26 % of control and 42 % of control (dose: 82.5 mg/kg/injection, schedule: Q01DX007 (ip), vehicle: other); 14 % of control under setting [3].
For the compound `CCCCNC(=O)c1n[se]nc1NC(N)=O`, the T/C by setting is: (dose: 15.0 mg/kg/injection, schedule: Q01DX007 (ip), vehicle: carboxymethylcellulose (CMC)) 94 % of control; (dose: 30.0 mg/kg/injection, schedule: Q01DX007 (ip), vehicle: carboxymethylcellulose (CMC)) 114 % of control.
For the compound `N#Cc1cn(C2OC(CO)C(O)C2O)c2ncnc(N)c12` (centres undefined), the T/C (dose: 0.05 mg/kg/injection, schedule: Q#A X014 (ip), vehicle: carboxymethylcellulose (CMC)) was 79 % of control.

For the origin of these results see PubChem BioAssay AID342 (DTP/NCI, 2004).
